Where a name gives a salt, the structure may show the parent alone.
System: peptide sequence L-Lys-D-Ala-D-Ala (Receptor)
Test: Determination of the binding constant by Laser Light Scattering (LLS) on receptor-coated polymer particles
Conditions: Langmuir fit
Experimental: […]
After each addition the mixture was stirred for 30 seconds and let balance for 1 minute, and the scattering light intensity was measured by using a 5 milliwatt He—Ne laser and a photomultiplier to convert the scattered light into an electric signal.
The light intensity was recorded for 10 seconds for consecutive six times thus selecting the lowest value in order to minimize the noise due to the possible presence of powder in the sample. […]

Question: `CN[C@H](CC(C)C)C(=O)N[C@H]1C(=O)N[C@@H](CC(N)=O)C(=O)N[C@H]2C(=O)N[C@H]3C(=O)N[C@H](C(=O)N[C@H](C(=O)O)c4cc(O)cc(O)c4-c4cc3ccc4O)[C@H](O)c3ccc(c(Cl)c3)Oc3cc2cc(c3O[C@@H]2O[C@H](CO)[C@@H](O)[C@H](O)[C@H]2O[C@H]2C[C@](C)(N)[C@H](O)[C@H](C)O2)Oc2ccc(cc2Cl)[C@H]1O` [Vancomycin, Vancomycin hydrochloride hydrate] was tested. Which “binding constant (receptor-ligand)” value (Example 1: particles of average diameter 78 nm, TFE copolymer with 40% by moles perfluoromethylvinylether, 0.4 millimole Vancomycin solution) did it give?
Answer: 1.5e+06 mol⁻¹

Question: And the “binding constant (receptor-ligand)” value (Example 2: particles of average diameter 40 nm, TFE copolymer with 30% by moles TTD, 0.9 millimolar Vancomycin)?
Answer: 1.1e+06 mol⁻¹
